Values of other authors, collected in patent publication US20120077872A1, “PRESERVATIVE-FREE PHARMACEUTICAL TETRAHYDROLIPSTATIN COMPOSITIONS” (EMS S.A., priority 2009, published 2012).

Settings: stored at dry atmosphere

temperature at which degradation starts: around 40 °C
SMILES: CCCCCCCCCCC[C@@H](C[C@@H]1OC(=O)[C@H]1CCCCCC)OC(=O)[C@H](CC(C)C)NC=O [THL, N-Formyl-L-leucine (1S)-1-[[(2S,3S)-3-hexyl-4-oxo-2-oxetanyl]methyl]dodecyl ester]
